For two compounds, inhibition results are on record in paper PMC4304211 (Bioorganic & medicinal chemistry, 2013).

The target of this assay is STAT3 (Homo sapiens, UniProt P40763). Briefly: fluorescence polarization competition, single concentration […]. The format is binding. The settings on record: read-out: % inhibition at 500 μM. In general terms: Polarisation of emitted light reports the rotation of a fluorescent probe.

The term inhibition denotes the change of the read-out against control, counted positive when it falls.

Bounds are passed on as bounds.

Sequence of STAT3 (P40763 2-770): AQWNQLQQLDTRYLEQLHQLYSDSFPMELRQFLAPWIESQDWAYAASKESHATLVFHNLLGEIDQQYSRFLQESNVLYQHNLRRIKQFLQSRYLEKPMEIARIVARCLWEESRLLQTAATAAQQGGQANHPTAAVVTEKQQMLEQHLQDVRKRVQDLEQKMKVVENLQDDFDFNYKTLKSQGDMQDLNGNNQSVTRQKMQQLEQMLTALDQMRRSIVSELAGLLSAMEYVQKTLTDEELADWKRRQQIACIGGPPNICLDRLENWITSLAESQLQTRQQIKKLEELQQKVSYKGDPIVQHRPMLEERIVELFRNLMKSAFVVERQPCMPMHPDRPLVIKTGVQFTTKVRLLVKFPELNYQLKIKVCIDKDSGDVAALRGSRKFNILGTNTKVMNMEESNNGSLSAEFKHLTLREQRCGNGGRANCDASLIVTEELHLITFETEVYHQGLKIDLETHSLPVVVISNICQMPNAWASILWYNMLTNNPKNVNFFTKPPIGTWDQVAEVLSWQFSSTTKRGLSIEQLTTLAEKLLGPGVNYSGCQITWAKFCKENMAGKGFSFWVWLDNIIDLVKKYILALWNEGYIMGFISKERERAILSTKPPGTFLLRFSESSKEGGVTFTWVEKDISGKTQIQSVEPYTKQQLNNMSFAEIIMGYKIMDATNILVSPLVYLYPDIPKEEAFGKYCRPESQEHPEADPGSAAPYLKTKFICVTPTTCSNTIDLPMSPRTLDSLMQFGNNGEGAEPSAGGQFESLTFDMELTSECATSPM

On to `O=C1C=C(SCCO)C(=O)c2c(O)cccc21` [PD10, 8-Hydroxy-2-((2-hydroxyethyl)thio)naphthalene-1,4-dione], for which the inhibition at 500 µM was more than 50%.
Take `NS(=O)(=O)c1cccc2c1C(=O)C=C(SCCO)C2=O` [PD11, 6-((2-Hydroxyethyl)thio)-5,8-dioxo-5,8-dihydronaphthalene-1-sulfonamide]: the inhibition at 500 µM is more than 50%.
